# Results: article PMC8222254, “Self-assembly of an anion receptor with metal-dependent kinase inhibition and potent in vitro anti-cancer properties” (Nature Communications, 2021)
# Several values for one entry are separate records, joined by “and”; a condition that tells them apart may be missing. Identical values can stand only once.
# How the values were obtained:
# Assay in all cases: Kinase inhibition screen, cell-free 33P ATP assay at 10 μM
# Format in all cases: biochemical
# [1] = target: T1, 140 purified human kinases (Homo sapiens, UniProt P52564)
# T1 sequence (P52564 1-334): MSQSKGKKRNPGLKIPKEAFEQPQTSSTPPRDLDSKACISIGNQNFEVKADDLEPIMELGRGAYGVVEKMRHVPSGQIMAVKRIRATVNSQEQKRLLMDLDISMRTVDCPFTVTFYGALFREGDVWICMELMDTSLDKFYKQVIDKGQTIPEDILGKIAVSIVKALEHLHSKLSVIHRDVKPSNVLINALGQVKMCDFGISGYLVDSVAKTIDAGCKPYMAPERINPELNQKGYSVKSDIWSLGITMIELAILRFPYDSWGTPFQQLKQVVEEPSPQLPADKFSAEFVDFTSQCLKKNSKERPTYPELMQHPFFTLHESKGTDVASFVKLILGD
# Outline: (§1)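 Radiometric ^33P ATP cell-free format with purified enzymes; both complexes run at 10 μM in duplicate, results plotted on a kinome map via HGNC symbols.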
# [2] = target: 140 purified human kinases (Homo sapiens, UniProt P53350); details: for % Activity Run 1 / % Activity Run 2: 10 µM
# Sequence of 140 purified human kinases (Homo sapiens, UniProt P53350) (P53350 whole entry): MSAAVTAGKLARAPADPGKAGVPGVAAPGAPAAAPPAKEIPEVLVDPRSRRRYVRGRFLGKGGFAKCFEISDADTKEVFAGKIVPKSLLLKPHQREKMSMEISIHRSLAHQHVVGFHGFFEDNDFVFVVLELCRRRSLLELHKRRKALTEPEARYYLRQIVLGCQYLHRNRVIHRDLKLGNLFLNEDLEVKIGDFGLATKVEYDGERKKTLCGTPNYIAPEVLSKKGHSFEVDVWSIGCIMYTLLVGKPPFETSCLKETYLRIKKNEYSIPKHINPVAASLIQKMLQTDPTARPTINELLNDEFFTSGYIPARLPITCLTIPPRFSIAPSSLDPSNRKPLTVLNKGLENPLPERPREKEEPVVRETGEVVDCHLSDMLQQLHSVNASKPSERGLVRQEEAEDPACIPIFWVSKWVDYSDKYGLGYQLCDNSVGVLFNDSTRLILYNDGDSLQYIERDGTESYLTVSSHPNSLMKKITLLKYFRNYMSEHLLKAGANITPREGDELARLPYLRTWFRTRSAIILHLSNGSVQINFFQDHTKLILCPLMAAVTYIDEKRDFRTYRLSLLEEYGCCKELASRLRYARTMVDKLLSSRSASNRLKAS
# Outline: as §1
# [3] = target: T2, 140 purified human kinases (Homo sapiens, UniProt Q7L7X3)
# T2 sequence (Q7L7X3 1-1001): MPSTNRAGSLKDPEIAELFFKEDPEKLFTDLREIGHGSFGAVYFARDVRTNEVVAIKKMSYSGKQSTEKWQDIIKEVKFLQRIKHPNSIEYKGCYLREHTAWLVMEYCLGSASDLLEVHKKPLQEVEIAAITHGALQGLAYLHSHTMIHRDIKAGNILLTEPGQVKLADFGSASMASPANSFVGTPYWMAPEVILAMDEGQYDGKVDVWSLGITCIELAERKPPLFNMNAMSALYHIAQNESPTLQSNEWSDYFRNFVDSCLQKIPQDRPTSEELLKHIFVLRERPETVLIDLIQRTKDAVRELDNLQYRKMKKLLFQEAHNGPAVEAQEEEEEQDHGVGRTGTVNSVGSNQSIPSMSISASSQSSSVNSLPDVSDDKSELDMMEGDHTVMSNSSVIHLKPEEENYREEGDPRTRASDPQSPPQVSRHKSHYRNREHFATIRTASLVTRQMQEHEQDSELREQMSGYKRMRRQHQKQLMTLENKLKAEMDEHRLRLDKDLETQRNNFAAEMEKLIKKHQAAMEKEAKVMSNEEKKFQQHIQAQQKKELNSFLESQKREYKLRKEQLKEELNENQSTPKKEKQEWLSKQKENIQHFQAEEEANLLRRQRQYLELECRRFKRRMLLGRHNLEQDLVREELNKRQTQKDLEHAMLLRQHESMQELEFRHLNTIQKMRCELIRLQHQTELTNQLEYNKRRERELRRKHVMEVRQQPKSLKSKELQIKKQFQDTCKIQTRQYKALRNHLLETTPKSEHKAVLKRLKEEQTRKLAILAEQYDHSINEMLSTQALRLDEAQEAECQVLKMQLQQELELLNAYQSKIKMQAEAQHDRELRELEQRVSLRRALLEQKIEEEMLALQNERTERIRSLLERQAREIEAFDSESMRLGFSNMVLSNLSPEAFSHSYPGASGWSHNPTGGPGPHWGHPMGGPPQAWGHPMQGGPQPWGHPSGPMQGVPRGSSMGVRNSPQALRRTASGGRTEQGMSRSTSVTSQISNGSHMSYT
# Outline: as §1
# [4] = target: T3, 140 purified human kinases (Homo sapiens, UniProt Q8IW41); details: PRAK
# T3 sequence (Q8IW41 1-473): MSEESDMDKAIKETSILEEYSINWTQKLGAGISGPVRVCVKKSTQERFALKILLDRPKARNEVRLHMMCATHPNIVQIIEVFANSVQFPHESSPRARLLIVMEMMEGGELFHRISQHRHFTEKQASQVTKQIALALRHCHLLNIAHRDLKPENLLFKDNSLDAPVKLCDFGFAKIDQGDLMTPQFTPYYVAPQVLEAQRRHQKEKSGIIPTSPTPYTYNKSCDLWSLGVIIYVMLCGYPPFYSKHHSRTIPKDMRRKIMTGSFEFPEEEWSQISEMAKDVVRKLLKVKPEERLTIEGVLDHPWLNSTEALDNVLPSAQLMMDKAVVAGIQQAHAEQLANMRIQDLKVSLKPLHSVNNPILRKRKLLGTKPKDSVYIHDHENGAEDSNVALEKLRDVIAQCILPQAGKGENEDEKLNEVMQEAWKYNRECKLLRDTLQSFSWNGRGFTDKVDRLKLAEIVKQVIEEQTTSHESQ
# Outline: as §1
# [5] = target: 140 purified human kinases (Homo sapiens, UniProt Q9P0L2)
# Sequence of 140 purified human kinases (Homo sapiens, UniProt Q9P0L2) (Q9P0L2 whole entry): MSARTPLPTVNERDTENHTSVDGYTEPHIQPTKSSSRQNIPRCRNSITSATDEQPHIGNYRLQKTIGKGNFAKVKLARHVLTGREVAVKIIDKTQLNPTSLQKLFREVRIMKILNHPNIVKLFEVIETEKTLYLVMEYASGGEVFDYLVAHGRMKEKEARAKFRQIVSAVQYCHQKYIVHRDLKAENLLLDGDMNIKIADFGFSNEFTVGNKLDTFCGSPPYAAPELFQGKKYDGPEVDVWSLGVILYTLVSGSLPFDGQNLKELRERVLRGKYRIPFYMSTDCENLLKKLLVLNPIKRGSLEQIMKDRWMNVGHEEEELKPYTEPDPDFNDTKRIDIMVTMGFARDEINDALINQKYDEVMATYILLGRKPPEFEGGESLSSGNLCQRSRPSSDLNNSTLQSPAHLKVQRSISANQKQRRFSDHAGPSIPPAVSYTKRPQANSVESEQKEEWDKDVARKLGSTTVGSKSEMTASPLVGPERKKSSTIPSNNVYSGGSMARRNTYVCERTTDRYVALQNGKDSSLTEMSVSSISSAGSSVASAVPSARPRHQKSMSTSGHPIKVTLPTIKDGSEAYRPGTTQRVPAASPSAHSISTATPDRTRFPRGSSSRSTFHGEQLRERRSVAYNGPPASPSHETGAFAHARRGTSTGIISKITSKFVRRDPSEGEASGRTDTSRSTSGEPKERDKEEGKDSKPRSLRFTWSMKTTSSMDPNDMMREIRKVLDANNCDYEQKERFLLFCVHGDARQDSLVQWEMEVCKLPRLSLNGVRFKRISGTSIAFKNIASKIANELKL
# Outline: as §1
compound,measurement,setting,value
[Cu+2].[Cu+2].[Cu+2].c1ccc(-c2csc(NCCN(CCNc3nc(-c4ccccn4)cs3)CCNc3nc(-c4ccccn4)cs3)n2)nc1.c1ccc(-c2csc(NCCN(CCNc3nc(-c4ccccn4)cs3)CCNc3nc(-c4ccccn4)cs3)n2)nc1 [[L2Cu3]6+],% Inhibition Run 1,[1]; MKK6,75.4%
same,% Inhibition Run 2,[1]; MKK6,83.7%
same,"% Inhibition, Mean",[1]; MKK6,80%
same,mean % activity,[1]; MKK6,20%
same,% activity,"[1]; MKK6, Run 1",24.6%
same,% activity,"[1]; MKK6, Run 2",16.3%
same,"% Activation, Mean value",[2]; PLK1,12%
same,% Inhibition Run 1,[2]; PLK1,-4.1%
same,% Inhibition Run 2,[2]; PLK1,-19.1%
same,"% Inhibition, Mean",[2]; PLK1,-12%
same,mean % activity,[2]; PLK1,112%
same,% activity,"[2]; PLK1, Run 1",104.1%
same,% activity,"[2]; PLK1, Run 2",119.1%
same,% Activity Run 1,[2]; PLK1,104.10%
same,% Activity Run 2,[2]; PLK1,119.10%
same,"% Activation, Mean value",[3]; TAO1,10%
same,% Inhibition Run 1,[3]; TAO1,-6.6%
same,% Inhibition Run 2,[3]; TAO1,-13.8%
same,"% Inhibition, Mean",[3]; TAO1,-10%
same,mean % activity,[3]; TAO1,110%
same,% activity,"[3]; TAO1, Run 1",106.6%
same,% activity,"[3]; TAO1, Run 2",113.8%
same,% Activity Run 1,"[3]; TAO1, 10 µM",106.60%
same,% Activity Run 2,"[3]; TAO1, 10 µM",113.80%
same,% Inhibition Run 1,[4],79.7%
same,% Inhibition Run 2,[4],79.1%
same,"% Inhibition, Mean",[4],79%
same,mean % activity,[4],21%
same,% activity,[4]; Run 1,20.3%
same,% activity,[4]; Run 2,20.9%
same,% Inhibition Run 1,[5]; MARK1,26.5%
same,% Inhibition Run 2,[5]; MARK1,16.9%
same,"% Inhibition, Mean",[5]; MARK1,22%
same,mean % activity,[5]; MARK1,78%
same,% activity,"[5]; MARK1, Run 1",73.5%
same,% activity,"[5]; MARK1, Run 2",83.1%
CC(=O)[O-].CC(=O)[O-].CC(=O)[O-].CC(=O)[O-].CC(=O)[O-].CC(=O)[O-].[Zn+2].[Zn+2].[Zn+2].c1ccc(-c2csc(NCCN(CCNc3nc(-c4ccccn4)cs3)CCNc3nc(-c4ccccn4)cs3)n2)nc1.c1ccc(-c2csc(NCCN(CCNc3nc(-c4ccccn4)cs3)CCNc3nc(-c4ccccn4)cs3)n2)nc1 [[L2Zn3]6+],"% Inhibition, Mean",[1]; MKK6,48%
same,"% Inhibition, Run 1 / Run 2",[1]; MKK6,59% and 37%
same,mean % activity,[1]; MKK6,52%
same,% activity,"[1]; MKK6, duplicate runs",41% and 63%
same,"% Activation, Mean value",[2]; PLK1,17%
same,"% Inhibition, Mean",[2]; PLK1,-17%
same,"% Inhibition, Run 1 / Run 2",[2]; PLK1,-15% and -19%
same,mean % activity,[2]; PLK1,117%
same,% Activity Run 1,[2]; PLK1,115.0%
same,% Activity Run 2,[2]; PLK1,119.0%
same,% activity,"[2]; PLK1, duplicate runs",115% and 119%
same,"% Activation, Mean value",[3]; TAO1,8%
same,"% Inhibition, Mean",[3]; TAO1,-8%
same,mean % activity,[3]; TAO1,108%
same,% activity,"[3]; TAO1, duplicate runs",93% and 122%
same,"% Inhibition, Mean",[4],81%
same,"% Inhibition, Run 1 / Run 2",[4],83% and 79%
same,mean % activity,[4],19%
same,% Activity inhibition Mean,[4]; 10 µM,81.0%
same,% Activity inhibition Run 1,[4]; 10 µM,83%
same,% Activity inhibition Run 2,[4]; 10 µM,79%
same,% Activity remaining Run 1,[4]; 10 µM,17%
same,% Activity remaining Run 2,[4]; 10 µM,21%
same,% activity,[4]; duplicate runs,17% and 21%
same,"% Inhibition, Mean",[5]; MARK1,23%
same,"% Inhibition, Run 1 / Run 2",[5]; MARK1,26% and 20%
same,mean % activity,[5]; MARK1,77%
same,% activity,"[5]; MARK1, duplicate runs",74% and 80%
